Measured values published in the supplement of paper PMC10307832.

Key:
Test in all cases: relative viability (nuclei count vs DMSO), 5 days (fraction); higher = more cells survive
[1] = compound: C1CC2=C(C1)C=C(C=C2)OC3=NC(=C4C(=N3)N(C=N4)CC5=CC=C(C=C5)C6=CC=CC=C6)N[C@@H](CC7=CC=CC=C7)CO [QS11] + COc1cccc2cc(-c3nc([C@H]4CC[C@H](C(=O)O)CC4)n4ncnc(N)c34)[nH]c12 [OSI-027] (partner 0.5 µM)
Outline: (§1)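 The day after seeding in 1536-well plates, lung cancer cell lines were treated by pin tool with a single drug, or with a fixed anchor-drug dose together with five library-drug doses (not always all listed) in √10 steps. After 5 days, a combined fix-and-stain solution (final 0.05% Triton X-100, 1% formaldehyde, 1 ug/ml Hoechst) was added. Nuclei counted on 4× images gave relative viability as treated counts over vehicle counts, reported as the median of duplicate plates.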

[2] = compound: C1CC2=C(C1)C=C(C=C2)OC3=NC(=C4C(=N3)N(C=N4)CC5=CC=C(C=C5)C6=CC=CC=C6)N[C@@H](CC7=CC=CC=C7)CO [QS11] + Nc1ncn([C@H]2C[C@H](O)[C@@H](CO)O2)c(=O)n1 [Decitabine] (partner 2 µM)
Outline: as §1

[3] = compound: CC1=C(C=C(C=C1)NC(=O)C2=CC(=CC=C2)C(C)(C)C#N)NC3=CC4=C(C=C3)N=CN(C4=O)C [AZ628] + NC(=O)Nc1cc(-c2cccc(F)c2)sc1C(=O)N[C@H]1CCCNC1 [AZD7762] (partner 0.2 µM)
Outline: as §1

[4] = compound: CC1=C(C=C(C=C1)NC(=O)C2=CC(=CC=C2)C(C)(C)C#N)NC3=CC4=C(C=C3)N=CN(C4=O)C [AZ628] + CC1(C)CCC(c2ccc(Cl)cc2)=C(CN2CCN(c3ccc(C(=O)NS(=O)(=O)c4ccc(N[C@H](CCN5CCOCC5)CSc5ccccc5)c(S(=O)(=O)C(F)(F)F)c4)cc3)CC2)C1 [Navitoclax] (partner 0.5 µM)
Outline: as §1

Row | Cell Line | relative viability ([1]; first compound 0.08 µM) | relative viability ([1]; first compound 0.253 µM) | relative viability ([1]; first compound 0.8 µM) | relative viability ([1]; first compound 2.53 µM) | relative viability ([1]; first compound 8 µM) | relative viability ([2]; first compound 0.08 µM) | relative viability ([2]; first compound 0.253 µM) | relative viability ([2]; first compound 0.8 µM) | relative viability ([2]; first compound 2.53 µM) | relative viability ([2]; first compound 8 µM) | relative viability ([3]; first compound 0.08 µM) | relative viability ([3]; first compound 0.253 µM) | relative viability ([3]; first compound 0.8 µM) | relative viability ([3]; first compound 2.53 µM) | relative viability ([3]; first compound 8 µM) | relative viability ([4]; first compound 0.08 µM) | relative viability ([4]; first compound 0.253 µM) | relative viability ([4]; first compound 0.8 µM) | relative viability ([4]; first compound 2.53 µM) | relative viability ([4]; first compound 8 µM)
1 | NCI-H647 | 0.585 | 0.64 | 0.596 | 0.642 | 0.732 | 0.391 | 0.44 | 0.349 | 0.374 | 0.309 | 0.485 | 0.417 | 0.456 | 0.488 | 0.397 | 1.29 | 1.1 | 1.21 | 1.19 | 1.02
2 | NCI-H727 | 0.576 | 0.708 | 0.579 | 0.404 | 0.461 | 0.767 | 0.855 | 0.762 | 0.899 | 0.61 | 0.504 |  |  | 0.369 | 0.333 | 0.339 | 0.276 | 0.163 | 0.154 | 0.165
3 | NCI-H838 | 0.339 | 0.366 | 0.362 | 0.378 | 0.359 | 0.494 | 0.483 | 0.43 | 0.422 | 0.411 | 0.957 | 0.884 | 0.915 | 0.95 | 0.922 | 1.15 | 1.19 | 1.1 | 1.11 | 0.991
4 | NCI-H1355 | 0.392 | 0.324 | 0.334 | 0.35 | 0.334 | 0.34 | 0.31 | 0.333 | 0.349 | 0.346 | 0.798 | 0.754 | 0.737 | 0.638 | 0.541 | 0.99 | 0.808 | 0.931 | 0.903 | 0.746
